# Assay results as given in patent US20230233538A1, “COMPOSITION FOR TREATING CORONAVIRUS DISEASE-19, COMPRISING PHENANTHROINDOLIZIDINE AND PHENANTHROQUI[…] DERIVATIVES, OPTICAL ISOMER THEREOF, OR PHARMACEUTICALLY ACCEPTABLE SALTS THEREOF AS ACTIVE INGREDIENT” (priority 2020, published 2023).
# Read-outs that look alike come from different tables or passages of the source.
# Assays:
# [1] = tested on: Vero CCL-81 cells
# [2] = in vitro; conditions: African green monkey, Cytotoxic Concentration 50 (CC50)
# [3] = tested on: SARS-CoV-2; assay: microbe, parasite or virus in culture; type: cell-based; conditions: for EC50: read-out: Effective Concentration 50 (EC50), 50% virus proliferation inhibitory concentration
# [4] = Severe acute respiratory syndrome coronavirus 2, 48 h
SMILES,Selectivity Index (SI) [1],CC50 [2] [nM],"EC50 [3, 4] [nM]",fold greater effect (virus proliferation inhibitory ability) compared to Remdesivir [3],CC50 ([1]; African green monkey) [nM],EC50 [3] [nM]
"COc1cc2c3c(c4ccc(NS(C)(=O)=O)cc4c2cc1OC)CN1CCC[C@@H]1C3 [Compound 1, (R)-N-(2,3-dimethoxy-9,11,12,13,13a,14-hexahydrodibenzo-[f,h]pyrrolo[1,2-b]isoquinolin-6-yl)methanesulfonamide]",52,1820,35,,,
"COc1cc2c3c(c4ccc(NS(C)(=O)=O)cc4c2cc1OC)CN1CCCC[C@@H]1C3 [Compound 2, (R)-N-(2,3-dimethoxy-11,12,13,14,14a,15-hexahydro-9H-dibenzo[f,h]pirido[1,2-b]isoquinolin-6-yl)methanesulfonamide]",10,126,13,"~1,700 fold",,
"COC(=O)Nc1ccc2c3c(c4cc(OC)c(OC)cc4c2c1)CC1CCCCN1C3 (centres unmarked) [Compound 3, methyl(2,3-dimethoxy-11,12,13,14,14a,15-hexahydro-9H-dibenzo[f,h]pirido[1,2-b]isoquinolin-6-yl)carbamate]",19,317,17,"~1,300 fold",,
"CCC(CC)COC(=O)[C@H](C)N[P@](=O)(OC[C@H]1O[C@@](C#N)(c2ccc3c(N)ncnn23)[C@H](O)[C@@H]1O)Oc1ccccc1 [Remdesivir, reference compound]",7.8,172000,22000,,172000,22100
"COc1ccc2c3c(c4cc(OC)c(OC)cc4c2c1)C[C@H]1CCCN1C3 [antofine, reference compound]",24,872,,,,37
"COc1ccc2c3c(c4cc(OC)c(OC)cc4c2c1)C[C@H]1CCCCN1C3 [cryptopleurin, reference compound]",,,,,,11
